Key:
[1] = tested on: Human triple-negative breast cancer (TNBC) cell line MDA-MB-231; assay: MTS cell viability assay, MDA-MB-231 breast cancer cell line; format: cell-based; settings: 0 to 10 μM, FIG. 3, one range stated for both cell lines and three compounds
Method: (§1) Human triple-negative breast cancer (TNBC) cell line MDA-MB-231 (Cell seeding numbers: 1(M231)×10^4 cells/wells (confluency ≥25%) and HER2 positive breast cancer (HER2^+ BC) cell line JIMT-1 (Cell seeding numbers: 1.2(JIMT)×10^4 cells/wells (confluency ≥25%)) were used in the experiments.
(§2) The above mentioned cell lines were cultured under a 5% CO2 environment at 37° C. in Dulbecco's modified Eagle's medium (DMEM) containing 10% fetal bovine serum (FBS), streptomycin-penicillin (100 U/mL) and Fungizone ([…]), respectively.
(§3) The human breast cancer cell lines MDA-MB-231 and JIMT-1 were treated with thiobenzimidazole derivatives of Chemical Formula 1-1 to Chemical Formula 1-17 at concentrations of 0, 0.5, 1 and 5 μM for 72 hours, respectively, and then cell viability was measured by MTS assay. The MTS assay was performed by attaching cells to 96-well plates for 24 hours, treating them with the above mentioned thiobenzimidazole derivatives for 72 hours, and then developing them with MTS (3-(4,5-dimethylthiazol-2-yl)-5-(3-carboxymethoxyphenyl)-2-(4-sulfophenyl)-2H-tetrazolium) for 4 hours, and measuring the absorbance at 490 nm using a Spectramax Plus384 microplate analyzer.
(§4) MDA-MB-231 and JIMT-1 cell lines were treated with the thiobenzimidazole derivatives of the present disclosure (Chemical Formula 1-10, 1-11 and 1-15) at concentrations of 0. 0.01, 0.05, 0.1, 0.1, 0.25, 0.5, 1, 5 and 10 μM, respectively, and then the cell viability and corresponding IC50 values were determined. The preparation and experimentation methods for the cell lines were the same as those used in the Example 1 experiments.

[2] = tested on: HER2 positive breast cancer (HER2+ BC) cell line JIMT-1; assay: MTS cell viability assay, JIMT-1 breast cancer cell line; format: cell-based; settings: Homo sapiens, 0 to 10 μM, FIG. 3, one range stated for both cell lines and three compounds
Method: as §1, §2, §3, §4

SMILES | IC50 [1] [nM] | IC50 [2] [nM]
COC(=O)Nc1nc2cc(Sc3ccc(N4CCC(O)CC4)cc3)ccc2[nH]1 [1-15] | 150 to 350 | 150 to 350
COC(=O)Nc1nc2cc(Sc3ccc(N4CC(C)N(S(C)(=O)=O)C(C)C4)cc3)ccc2[nH]1 (stereo not drawn) [1-11] | 150 to 350 | 150 to 350
COC(=O)Nc1nc2cc(Sc3ccc(N4CCS(=O)(=O)CC4)cc3)ccc2[nH]1 [1-10] | 150 to 350 | 150 to 350

Reference: patent publication US20250214945A1, “THIOBENZIMIDAZOLE DERIVATIVE OR PHARMACEUTICALLY ACCEPTABLE SALT THEREOF, AND USE THEREOF” (KOREA UNIVERSITY RESEARCH AND BUSINESS FOUNDATION, priority 2022, published 2025)
